Ten molecules from patent US11149052B2, “2′3′-cyclic dinucleotides” (Institute of Organic Chemistry and Biochemistry, ASCR, V.V.I, priority 2018, dated 2021) can be followed below.

Structures are written as SMILES. pEC50: −log10 of the molar value.

Experiment [1] has as its target T1, WT STING (truncated human WT STING protein) (Homo sapiens, UniProt Q86WV6, H232R).
T1 construct: truncated human WT STING or AQ STING (amino acid residues 140-343); 8xHis (N, cleaved yes); SUMO (N, cleaved yes); made in house; host or cells: E. coli Rosetta-gami B (DE3)
Put plainly: Differential Scanning Fluorimetry with WT STING. It is filed as binding. The settings on record: thermal shift vs apoprotein; 150 μM CDN; 0.1 mg/ml STING protein; SYPRO Orange; read-out: DSF ΔTm (° C.) WT STING. How it is done:
(§1) Purified PCR products were cleaved with restriction enzymes BamHI (cat. #R0136S, NEB, Ipswich, USA) and NotI (cat. #R0189S, NEB, Ipswich, USA) and cloned into the pSUMO vector linearized with the identical enzymes.
(§2) DNase I (cat. #D5025, Sigma Aldrich, Czech Republic) and RNase A (cat. #R6513, Sigma Aldrich, Czech Republic) were added (final concentration […]) together with MgCl2 (final concentration 5 mmol·l^−1) to the homogenate and bacteria were lysed using French Press G-M™ High-Pressure Cell Press Homogenizer (1500 psi, 3 cycles). […] The resin was poured into a chromatography column, washed with 50 ml buffer A (50 mmol·l^−1 TrisCl (pH 8.0), 800 mmol·l^−1 NaCl, 3 mmol·l^−1β-mercaptoethanol; 10% glycerol; 20 mmol·l^−1 imidazole) and 8-His-SUMO tagged STING proteins were eluted with 15 ml buffer A containing 300 mmol·l^−1 imidazole. […] Proteins were concentrated with Amicon® Ultra-15 10 K device (cat. #UFC901008, Merck Millipore, Billerica, USA) and flash frozen in liquid N2.
(§3) Differential Scanning Fluorimetry with WT STING and AQ STING
(§4) 20 μL solutions of the reaction mixtures were pipetted in triplicates into 96 well optical reaction plates and thermal denaturation of samples were performed on real time PCR cycler (LightCycler® 480 Instrument II—Roche, Base^1, Switzerland). The first derivative of the thermal denaturation curves was performed to calculate denaturing temperatures of STING-CDN complexes and STING apoproteins. The thermal shift for each CDN was calculated by subtracting the average denaturing temperature of STING apoprotein from the average denaturing temperature of STING CDN complex.
On the technique in general: In DSF a fluorescence change marks the thermal transition of the protein.

For experiment [2], the target named is T2, AQ STING (truncated human STING G230A-R293Q allelic form) (Homo sapiens, UniProt Q86WV6, G230A/H232R/R293Q).
T2 construct: truncated human WT STING or AQ STING (amino acid residues 140-343); 8xHis (N, cleaved yes); SUMO (N, cleaved yes); made in house; host or cells: E. coli Rosetta-gami B (DE3)
Put plainly: Differential Scanning Fluorimetry with AQ STING. In kind it is binding. The settings on record: thermal shift vs apoprotein; 150 μM CDN; 0.1 mg/ml STING protein; SYPRO Orange; read-out: DSF ΔTm (° C.) AQ STING. How it is done: as §1, §2, §3, §4

Experiment [3] addresses human wild type STING (WT STING) (Homo sapiens, UniProt Q86WV6, H232R). Put plainly: Digitonin assay using 293T wtSTING-FL reporter cells (ISRE firefly luciferase reporter). In kind it is cell-based. Conditions: 293T wtSTING-FL cells; 30 min in Digitonin buffer, then 5 hours; luciferase read-out; 8-point dose-response curve; read-out: Digitonin assay EC50 (μmol · l^−1) WT STING. The text has this:
Two complementary oligonucleotides of the sequence […] […] […] […] […] The oligonucleotides were mixed in equal molar amounts, hybridized, and cleaved by restriction endonucleases HindIII (cat. #. R0104S, NEB, Ipswich, USA) and BglII (cat. #R0144S, NEB, Ipswich, USA). Ultimately, they were ligated into plasmid pGL4.27 (cat. #E6651, Promega, Madison, USA) linearized with the same enzymes. As result the sequence with four ISRE sites was placed upstream of the minimum promoter of firefly luciferase reporter gene.
After 5 minutes incubation at room temperature (RT), 250 μL of the mixture was added dropwise to the cells in one well.
Transfected cells were seeded onto poly-D-lysine coated six well plates at density 50,000 cells per 1 cm^2 in DMEM medium with high glucose containing 10% heat inactivated FBS, 30 μg/mL blasticidin (cat. #ant-bl-05, InvivoGen, San Diego, USA), 0.06 mg/ml Penicillin G and 0.1 mg/ml Streptomycin Sulfate (both cat. #. L0018, Biowest, Riverside, USA). The medium was replenished every 3-4 days until visible colonies of cells resistant to blasticidin were formed.
Blasticidin resistant cells stably expressing WT STING were further transfected with […] plasmid following the same procedure as described above. […] Homogeneous culture of stably double transfected cells was prepared by limiting dilution of cells in 96 well plates and wells with cells were selected that originated from a single cell.
The medium was removed next day and three fold serial dilutions of compounds in Digitonin buffer containing 50 mmol·l^−1 HEPES (cat. #H3375, Sigma Aldrich, Czech Republic) pH 7.0, 100 mmol·l^−1 KCl, 3 mmol·l^−1 MgCl2, 0.1 mmol·l^−1 DTT (cat. #D0632, Sigma Aldrich, Czech Republic), 85 mmol·l^−1 Sucrose (cat. #S7903, Sigma Aldrich, Czech Republic), 0.2% BSA (cat. #A2153, Sigma Aldrich, Czech Republic), 1 mmol·l^−1 ATP (cat. #A1852, Sigma Aldrich, Czech Republic), 0.1 mmol·l^−1 GTP (cat. #G8877, Sigma Aldrich, Czech Republic), and 10 μg/mL Digitonin A (cat. #D141, Sigma Aldrich, Czech Republic) were added to the cells. The buffer was removed after 30 minutes incubation at 37° C. with 5% CO2, the cells were washed once with 100 μl of cultivation medium, and 100 IA of medium was added to each well. The plates with cells were incubated for 5 hours at 37° C. with 5% CO2, 50 μl of the medium was removed and 30 μl of ONE-Glo™ Luciferase Assay System reagent (cat. #E6120, Promega, Madison, USA) was added to each well. Luminesce was read on Synergy H1 (Biotek, Winooski, USA).
(In general: Reporter assays use an easily measured gene product as a stand-in for the process of interest.)

T2 sequence (Q86WV6 140-343 G230A/H232R/R293Q): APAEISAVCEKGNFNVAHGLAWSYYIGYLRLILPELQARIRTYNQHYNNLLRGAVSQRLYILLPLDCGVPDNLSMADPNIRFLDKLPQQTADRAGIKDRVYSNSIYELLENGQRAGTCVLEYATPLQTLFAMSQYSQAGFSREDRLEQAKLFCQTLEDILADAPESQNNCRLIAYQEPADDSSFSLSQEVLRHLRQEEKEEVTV
Sequence of human wild type STING (WT STING) (Q86WV6 whole entry H232R): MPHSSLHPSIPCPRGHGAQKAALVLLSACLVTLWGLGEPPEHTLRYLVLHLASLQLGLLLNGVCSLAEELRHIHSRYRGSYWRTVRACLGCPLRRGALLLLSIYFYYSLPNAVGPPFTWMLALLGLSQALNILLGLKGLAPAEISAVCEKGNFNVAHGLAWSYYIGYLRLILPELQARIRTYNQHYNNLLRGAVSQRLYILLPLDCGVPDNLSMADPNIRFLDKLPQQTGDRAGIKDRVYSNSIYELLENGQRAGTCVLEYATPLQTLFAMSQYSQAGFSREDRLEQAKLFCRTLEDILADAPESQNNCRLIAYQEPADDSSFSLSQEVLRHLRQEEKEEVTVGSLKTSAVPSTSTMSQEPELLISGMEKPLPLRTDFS
T1 sequence (Q86WV6 140-343 H232R): as the sequence (Q86WV6 140-343 G230A/H232R/R293Q) above, with A91G, Q154R counted along it

On to `Nc1nc2c(ncn2[C@@H]2O[C@@H]3COP(=O)(O)O[C@@H]4[C@H](O)[C@@H](COP(=O)(O)CO[C@H]3[C@H]2F)O[C@H]4n2cnc3c(N)ncnc32)c(=O)[nH]1` [Example 14, (1R,6R,8R,9R,10R,16R,18R,19R)-8-(2-amino-6-oxo-6,9-dihydro-1H-purin-9-yl)-18-(6-amino-9H-purin-9-yl)-9-fluoro-3,13,19-trihydroxy-2,4,7,11,14,17-hexaoxa-3λ^5,13λ^5-diphosphatricyclo[14.2.1.0^6,^10]nonadecane-3,13-dione], for which the ΔTm at 150 µM was 6.7 °C in experiment [1] and 14.2 °C in experiment [2]. For the same molecule, in experiment [3], the pEC50 is 7.10.
The corresponding values for `Nc1nc2c(ncn2[C@@H]2O[C@@H]3COP(=O)(O)CO[C@H]4[C@H](O)[C@H](n5cnc6c(N)ncnc65)O[C@@H]4COP(=O)(O)O[C@@H]2[C@@H]3O)c(=O)[nH]1` [Example 16, (1R,6R,8R,9S,10S,16R,18R,19R)-18-(2-amino-6-oxo-6,9-dihydro-1H-purin-9-yl)-8-(6-amino-9H-purin-9-yl)-3,9,13,19-tetrahydroxy-2,4,7,11,14,17-hexaoxa-3λ^5,13λ^5-diphosphatricyclo[14.2.1.0^6,^10]nonadecane-3,13-dione] are 15.8 °C, 18.7 °C and 7.40.
The corresponding values for `Nc1nc2c(ncn2[C@@H]2O[C@@H]3COP(=O)(O)O[C@H]4[C@@H](F)[C@H](n5cnc6c(N)ncnc65)O[C@@H]4COP(=O)(O)CO[C@@H]2[C@@H]3O)c(=O)[nH]1` [Example 4, (1R,6R,7R,8R,10R,16R,17R,19R)-17-(2-amino-6-oxo-6,9-dihydro-1H-purin-9-yl)-8-(6-amino-9H-purin-9-yl)-7-fluoro-4,13,19-trihydroxy-3,5,9,12,15,18-hexaoxa-4λ^5,13λ^5-diphosphatricyclo[14.2.1.0^6,^10]nonadecane-4,13-dione] are 7.3 °C, 16 °C and 7.70.
The corresponding values for `Nc1ncnc2c1ncn2[C@@H]1O[C@@H]2COP(=O)(O)O[C@@H]3[C@H](F)[C@@H](COP(=O)(O)CO[C@H]2[C@H]1F)O[C@H]3n1cnc2c(N)ncnc21` [Example 22, (1S,6R,8R,9R,10R,16R,18R,19R)-8,18-bis(6-amino-9H-purin-9-yl)-9,19-difluoro-3,13-dihydroxy-2,4,7,11,14,17-hexaoxa-3λ^5,13λ^5-diphosphatricyclo[14.2.1.0^6,^10]nonadecane-3,13-dione] are 9 °C, 11.1 °C and 7.82.
In the case of `Nc1ncnc2c1ncn2[C@@H]1O[C@@H]2COP(=O)(O)CO[C@H]3[C@H](O)[C@@H](COP(=O)(O)CO[C@H]2[C@@H]1O)O[C@H]3n1cnc2c(N)ncnc21` [Example 13, (1S,7R,9R,10S,11S,17R,19R,20R)-9,19-bis(6-amino-9H-purin-9-yl)-4,10,14,20-tetrahydroxy-2,5,8,12,15,18-hexaoxa-4λ^5,14λ^5-diphosphatricyclo[15.2.1.0^7,^11]icosane-4,14-dione], the ΔTm at 150 µM in experiment [1] came to 0 °C; in experiment [2] it was 0.2 °C. In experiment [3], the negative logarithm of the EC50 (pEC50) is under 4.30.
The matching figures for `Nc1nc2c(ncn2[C@@H]2O[C@@H]3COP(=O)(O)CO[C@H]4[C@@H](O)[C@H](n5cnc6c(N)ncnc65)O[C@@H]4COP(=O)(O)O[C@@H]2[C@@H]3F)c(=O)[nH]1` [Example 19, (1S,6R,8R,9R,10S,16R,18R,19R)-18-(2-amino-6-oxo-6,9-dihydro-1H-purin-9-yl)-8-(6-amino-9H-purin-9-yl)-19-fluoro-3,9,13-trihydroxy-2,4,7,11,14,17-hexaoxa-3λ^5,13λ^5-diphosphatricyclo[14.2.1.0^6,^10]nonadecane-3,13-dione]: 18.2 °C, 25.1 °C and 8.70.
The matching figures for `Nc1nc2c(ncn2[C@@H]2O[C@@H]3COP(=O)(O)O[C@H]4[C@@H](O)[C@H](n5cnc6c(N)ncnc65)O[C@@H]4COP(=O)(O)CO[C@@H]2[C@@H]3O)c(=O)[nH]1` [Example 3, (1R,6S,7R,8R,10R,16R,17R,19R)-17-(2-amino-6-oxo-6,9-dihydro-1H-purin-9-yl)-8-(6-amino-9H-purin-9-yl)-4,7,13,19-tetrahydroxy-3,5,9,12,15,18-hexaoxa-4λ^5,13λ^5-diphosphatricyclo[14.2.1.0^6,^10]nonadecane-4,13-dione]: 0.8 °C, 7.2 °C and 5.52.
The matching figures for `Nc1nc2c(ncn2[C@@H]2O[C@@H]3COP(=O)(O)CO[C@H]4[C@@H](O)[C@H](n5cnc6c(N)ncnc65)O[C@@H]4COP(=O)(O)O[C@@H]2[C@@H]3O)c(=O)[nH]1` [Example 5, (1R,6R,8R,9R,10S,16R,18R,19R)-18-(2-amino-6-oxo-6,9-dihydro-1H-purin-9-yl)-8-(6-amino-9H-purin-9-yl)-3,9,13,19-tetrahydroxy-2,4,7,11,14,17-hexaoxa-3λ^5,13λ^5-diphosphatricyclo[14.2.1.0^6,^10]nonadecane-3,13-dione]: 16.7 °C, 23.2 °C and 7.85.
Take `Nc1nc2c(ncn2[C@@H]2O[C@@H]3COP(=O)(O)CO[C@@H]4[C@H](O)[C@@H](COP(=O)(O)O[C@H]3[C@H]2O)O[C@H]4n2cnc3c(N)ncnc32)c(=O)[nH]1` [Example 6, (1R,6S,7R,8R,10R,16R,17R,19R)-8-(2-amino-6-oxo-6,9-dihydro-1H-purin-9-yl)-17-(6-amino-9H-purin-9-yl)-4,7,13,19-tetrahydroxy-3,5,9,12,15,18-hexaoxa-4λ^5,13λ^5-diphosphatricyclo[14.2.1.0^6,^10]nonadecane-4,13-dione]: the ΔTm at 150 µM worked out at 0.1 °C in experiment [1] and 1.2 °C in experiment [2]. Moreover, the pEC50 in experiment [3] was under 4.30.
The matching figures for `Nc1nc2c(ncn2[C@@H]2O[C@@H]3COP(=O)(O)CO[C@@H]4[C@H](O)[C@@H](COP(=O)(O)O[C@H]3[C@H]2F)O[C@H]4n2cnc3c(N)ncnc32)c(=O)[nH]1` [Example 7, (1R,6R,7R,8R,10R,16R,17R,19R)-8-(2-amino-6-oxo-6,9-dihydro-1H-purin-9-yl)-17-(6-amino-9H-purin-9-yl)-7-fluoro-4,13,19-trihydroxy-3,5,9,12,15,18-hexaoxa-4λ^5,13λ^5-diphosphatricyclo[14.2.1.0^6,^10]nonadecane-4,13-dione]: 1.8 °C, 8.9 °C and 5.21.

The term ΔTm denotes the change in melting temperature against a reference sample. The term pEC50 denotes the EC50 on a negative log10 scale, so that one unit is a factor of ten.
